Assay results as given in ChEMBL document CHEMBL2069253, “Dipeptidyl peptidase-4 inhibitor with β-amino amide scaffold: synthesis, SAR and biological evaluation” (Bioorg Med Chem Lett, 2012).
Values belong to the compound of their own block, whether it stands above or below them.

Columns and labels:
[1] = biological target: Dipeptidyl peptidase 4 (Mus musculus, UniProt P28843); assay: Inhibition of mouse DPP4
[2] = biological target: T1, CYP3A4 (Homo sapiens, UniProt P08684); assay: Inhibition of CYP3A4 at 1 uM; assay type: ADME
T1 sequence (P08684 whole entry): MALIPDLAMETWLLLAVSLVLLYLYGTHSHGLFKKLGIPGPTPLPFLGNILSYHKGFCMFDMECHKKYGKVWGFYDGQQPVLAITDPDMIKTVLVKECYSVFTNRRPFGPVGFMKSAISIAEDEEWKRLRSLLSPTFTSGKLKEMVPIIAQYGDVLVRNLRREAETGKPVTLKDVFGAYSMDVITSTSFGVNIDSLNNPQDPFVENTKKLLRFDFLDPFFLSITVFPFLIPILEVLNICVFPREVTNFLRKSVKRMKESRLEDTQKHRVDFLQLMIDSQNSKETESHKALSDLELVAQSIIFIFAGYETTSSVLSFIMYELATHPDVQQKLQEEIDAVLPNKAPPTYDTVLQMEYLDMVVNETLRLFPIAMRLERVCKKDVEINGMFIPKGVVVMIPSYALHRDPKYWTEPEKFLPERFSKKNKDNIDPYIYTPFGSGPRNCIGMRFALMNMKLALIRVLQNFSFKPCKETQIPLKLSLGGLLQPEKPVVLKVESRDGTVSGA

[3] = biological target: T1, CYP3A4; assay: Inhibition of CYP3A4 at 3 uM; assay type: ADME
[4] = biological target: T1, CYP3A4; assay: Inhibition of CYP3A4 at 10 uM; assay type: ADME
[5] = species on record: Mus musculus; assay: animal or person; settings: C57BL/6J, Plasma, po, 1 h
Description: In vivo inhibition of DPP4 in po dosed C57BL/6J mouse plasma measured after 1 hr

[6] = species on record: Mus musculus; assay: animal or person; settings: C57BL/6J, Plasma, po, 1 h, read-out: INH
Description: In vivo inhibition of DPP4 in C57BL/6J mouse plasma at 0.3 mg/kg, po measured after 1 hr

[7] = species on record: Mus musculus; assay: animal or person; settings: C57BL/6J, Plasma, po, 1 h, read-out: INH; remark: listed apart in the source
Description: In vivo inhibition of DPP4 in C57BL/6J mouse plasma at 1 mg/kg, po measured after 1 hr

[8] = species on record: Mus musculus; assay: animal or person; settings: C57BL/6J, Plasma, po, 1 h, read-out: INH; remark: listed apart in the source
Description: In vivo inhibition of DPP4 in C57BL/6J mouse plasma at 3 mg/kg, po measured after 1 hr

[9] = species on record: Mus musculus; assay: animal or person; settings: C57BL/6J, Plasma, po, 1 h, read-out: INH; remark: listed apart in the source
Description: In vivo inhibition of DPP4 in C57BL/6J mouse plasma at 10 mg/kg, po measured after 1 hr

[10] = biological target: T2, Cytochrome P450 3A4 (Homo sapiens, UniProt P08684); assay: Inhibition of CYP3A4; assay type: ADME
T2 sequence (P08684 whole entry): as above

[11] = biological target: T2, Cytochrome P450 3A4; assay: Induction of CYP3A4 at 50 uM; assay type: ADME
[12] = Half life in rat at 10 mg/kg, po; assay type: ADME, organism-based; set-up: dose 10 mg/kg, route oral; settings: in vivo
[13] = Cmax in rat at 10 mg/kg, po; assay type: ADME, organism-based; set-up: dose 10 mg/kg, route oral; settings: in vivo
[14] = Oral bioavailability in rat at 10 mg/kg; assay type: ADME, organism-based; settings: in vivo
[15] = Stability in mouse plasma assessed as compound remaining at 1 hr; assay type: ADME, cell-free; settings: read-out: Stability
[16] = Stability in rat plasma assessed as compound remaining at 1 hr; assay type: ADME, cell-free; settings: read-out: Stability
[17] = Stability in human plasma assessed as compound remaining at 1 hr; assay type: ADME, cell-free; settings: read-out: Stability
[18] = Protein binding in mouse; assay type: ADME, organism-based; settings: plasma, read-out: PB (converted)
[19] = Protein binding in rat; assay type: ADME, organism-based; settings: plasma, read-out: PB (converted)
[20] = Protein binding in human; assay type: ADME, organism-based; settings: plasma, read-out: PB (converted)
[21] = Solubility of the compound at pH 1-9; assay type: physicochemical; settings: buffer
[22] = Metabolic stability in rat liver microsomes assessed as compound remaining at 1 hr; assay type: ADME, Microsome; settings: read-out: Stability
[23] = Metabolic stability in mouse liver microsomes assessed as compound remaining at 1 hr; assay type: ADME, Microsome; settings: read-out: Stability
[24] = Metabolic stability in dog liver microsomes assessed as compound remaining at 1 hr; assay type: ADME, Canis lupus familiaris, Microsome; settings: read-out: Stability
[25] = Metabolic stability in human liver microsomes assessed as compound remaining at 1 hr; assay type: ADME, Microsome; settings: read-out: Stability
[26] = species on record: Rattus norvegicus; assay: animal or person; settings: Sprague-Dawley, Plasma, po, 6 h, read-out: INH
Description: In vivo inhibition of DPP4 in Sprague-Dawley rat plasma at 10 mg/kg, po administered as single dose measured up to 6 hrs

[27] = species on record: Rattus norvegicus; assay: animal or person; settings: Sprague-Dawley, Plasma, po, 24 h, read-out: INH
Description: In vivo inhibition of DPP4 in Sprague-Dawley rat plasma at 10 mg/kg, po administered as single dose measured after 24 hrs

[28] = species on record: Mus musculus; assay: animal or person; settings: C57BL/6J, po, 2 h
Description: Antidiabetic activity in po dosed C57BL/6J mouse assessed as reduction in glucose AUC administered prior to glucose challenge measured up to 120 mins

[29] = species on record: Mus musculus; assay: animal or person; settings: C57BL/6J, po, 1 h, read-out: INH
Description: In vivo inhibition of DPP4 in C57BL/6J mouse at 1 mg/kg, po measured after 1 hr

[30] = species on record: Mus musculus; assay: animal or person; settings: C57BL/6J, po, 1 h, read-out: INH; remark: listed apart in the source
Description: In vivo inhibition of DPP4 in C57BL/6J mouse at 3 mg/kg, po measured after 1 hr

[31] = species on record: Mus musculus; assay: animal or person; settings: C57BL/6J, po, 1 h, read-out: INH; remark: listed apart in the source
Description: In vivo inhibition of DPP4 in C57BL/6J mouse at 10 mg/kg, po measured after 1 hr

Chain of Dipeptidyl peptidase 4 (P28843 whole entry): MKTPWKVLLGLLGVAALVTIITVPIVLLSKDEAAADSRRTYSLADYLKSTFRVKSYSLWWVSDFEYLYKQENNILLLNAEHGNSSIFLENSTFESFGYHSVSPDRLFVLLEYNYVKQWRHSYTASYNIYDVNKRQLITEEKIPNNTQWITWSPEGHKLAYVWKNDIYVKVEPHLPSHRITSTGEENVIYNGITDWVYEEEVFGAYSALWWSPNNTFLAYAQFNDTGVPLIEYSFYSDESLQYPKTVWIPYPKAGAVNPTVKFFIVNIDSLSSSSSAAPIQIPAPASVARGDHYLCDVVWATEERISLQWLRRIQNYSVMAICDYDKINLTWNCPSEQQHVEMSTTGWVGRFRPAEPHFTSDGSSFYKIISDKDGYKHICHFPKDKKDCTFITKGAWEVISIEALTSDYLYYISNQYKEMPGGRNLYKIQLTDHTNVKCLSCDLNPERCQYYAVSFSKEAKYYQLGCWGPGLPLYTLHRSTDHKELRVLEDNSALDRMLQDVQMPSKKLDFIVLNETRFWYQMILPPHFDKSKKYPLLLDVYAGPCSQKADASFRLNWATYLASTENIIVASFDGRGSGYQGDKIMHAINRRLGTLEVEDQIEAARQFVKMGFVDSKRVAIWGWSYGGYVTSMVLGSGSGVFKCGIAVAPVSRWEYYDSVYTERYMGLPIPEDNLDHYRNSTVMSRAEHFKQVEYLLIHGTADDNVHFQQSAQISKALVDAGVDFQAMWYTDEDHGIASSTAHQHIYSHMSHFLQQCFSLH

Structure (SMILES): N[C@@H](CC(=O)N1CCN(c2ccc(F)cc2F)CC1)Cc1cc(F)c(F)cc1F
- IC50 [1]: 94.4 nM
- inhibition at 1 µM [2]: 81.5%
- inhibition at 3 µM [3]: 94%
- inhibition at 10 µM [4]: 100%
- ED50 [5]: 0.87 mg/kg
- inhibition in vivo at 0.3 mg/kg [6]: 33.8%
- inhibition in vivo at 1 mg/kg [7]: 52.2%
- inhibition in vivo at 3 mg/kg [8]: 68.6%
- inhibition in vivo at 10 mg/kg [9]: 85.9%

Structure (SMILES): N[C@@H](CC(=O)N1CCN(C(=O)c2ccc(S(N)(=O)=O)cc2)CC1)Cc1cc(F)c(F)cc1F
- IC50 [10]: 1000 nM

Structure (SMILES): N[C@@H](CC(=O)N1CCN(C(=O)c2ccccc2)CC1)Cc1cc(F)c(F)cc1F
- IC50 [10]: 1000 nM

Structure (SMILES): N[C@@H](CC(=O)N1CCN(C(=O)c2ccc(OC(F)(F)F)cc2)CC1)Cc1cc(F)c(F)cc1F
- IC50 [10]: 1000 nM

Structure (SMILES): N[C@@H](CC(=O)N1CCN(C(=O)c2cccc(C(=O)O)c2)CC1)Cc1cc(F)c(F)cc1F
- IC50 [10]: 1000 nM

Structure (SMILES): N[C@@H](CC(=O)N1CCN(C(=O)c2ccccn2)CC1)Cc1cc(F)c(F)cc1F
- Activity [11]: < 10%
- half-life [12]: 4.74 h
- Cmax [13]: 2030 ng/mL
- bioavailability [14]: 65.3%
- remaining at 1 h [15]: > 97%
- remaining at 1 h [16]: > 97%
- remaining at 1 h [17]: 97%
- fraction unbound [18]: 0.557
- fraction unbound [19]: 0.729
- fraction unbound [20]: 0.497
- solubility [21]: > 10000 µg/mL
- remaining at 1 h [22]: 85%
- remaining at 1 h [23]: 79%
- remaining at 1 h [24]: 88%
- remaining at 1 h [25]: 89%
- inhibition in vivo at 10 mg/kg [26]: 60%
- inhibition in vivo at 10 mg/kg [27]: 30%
- ED30 [28]: 0.38 mg/kg
- inhibition in vivo at 1 mg/kg [29]: 32.5%
- inhibition in vivo at 3 mg/kg [30]: 59.1%
- inhibition in vivo at 10 mg/kg [31]: 84.6%

Structure (SMILES): CN1CCN(c2ccc(C(=O)N3CCN(C(=O)C[C@H](N)Cc4cc(F)c(F)cc4F)CC3)cc2)CC1
- IC50 [10]: 1000 nM

The remaining lines, values ahead:

- IC50 [10]: 1000 nM
Structure (SMILES): N[C@@H](CC(=O)N1CCN(C(=O)c2ccc(O)cc2)CC1)Cc1cc(F)c(F)cc1F

- IC50 [10]: 1000 nM
Structure (SMILES): N[C@@H](CC(=O)N1CCN(C(=O)c2ccc(C(=O)O)cc2)CC1)Cc1cc(F)c(F)cc1F

- IC50 [10]: 1000 nM
Structure (SMILES): N[C@@H](CC(=O)N1CCN(C(=O)c2ccc(F)cc2)CC1)Cc1cc(F)c(F)cc1F

- IC50 [10]: 1000 nM
Structure (SMILES): N[C@@H](CC(=O)N1CCN(C(=O)c2ccc(C(F)(F)F)cc2)CC1)Cc1cc(F)c(F)cc1F
